Where two headings read alike, the source gives them in different places.
Legend:
[1] = human body; cited from earlier work
[2] = Vandeberg et al 1996 J. Appl. Physiology 80; cited from earlier work
[3] = Mole:mole creatinine to creatine ratios required for stability at 2, 22 and 39° C. over pH 3.8 to 8.25 (Example 5); conditions: for time to reach stability: starting ratios close to equilibrium
Description: Using solutions from 1. above the following solutions were prepared at room temperature:
Triplicate samples were prepared.
The samples were capped and heat sterilized for 30 minutes at 90° C.
One set of samples was stored at 2° C., another set at 22° C. and the final set stored at 39°.

[4] = ingestion of 20 to 30 g per day for several days; cited from earlier work
[5] = Flavored drink of creatine plus creatinine formed by heating: stability at 22° C. and solubility at 3° C. (Example 4); type: physicochemical; conditions: Example 4 drink at 3° C.
Description: The solution was cooled to room temperature.
In addition, the solution contained 15 percent Aloe Vera juice, flavoring and dextrose to sweeten.
Solutions from steps 1 and 2 were then mixed together and heated at 90° C. for 30 minutes to sterilize the mixture and then placed in a glass or plastic bottle and stored at 22° C.

[6] = not given; remark: listed apart in the source

Cn1c(=O)c2c(ncn2C)n(C)c1=O [caffeine]
half life of ingested caffeine [1]: 5 to 6 h | effect on ergogenic action of muscle creatine loading [2]: counteracted the ergogenic action of muscle creatine loading

CN(CC(=O)O)C(=N)N.O [creatine monohydrate]
increase between weeks 5 and 6 as creatine monohydrate ([3]; 39° C.): 0.113 g per litre | increase in human skeletal muscle total creatine content [4]: greater than 20%

CN(CC(=O)O)C(=N)N [creatine]
mean change in creatine concentration between weeks 5 and 6 ([3]; 39° C., mean (SD)): +0.76 (SD 1.3) mmol/l | percentage change from weeks 5 and 6 ([3]; 39° C., mean (SD)): 3.1 (3.8) % | time to reach stability ([3]; incubated at 39° C.): < 5 weeks | time to reach stability ([3]; incubated between 2 and 39° C.): ≤ 6 weeks | precipitation in refrigerator [5]: did not precipitate out | period remaining creatine stable after heating (pH's 3 and 4, after 30 minutes at 90° C., 22° C.): at least 95 days | stability of creatine with sufficient creatinine (pH's 5, 6 and 7, creatinine:creatine monohydrate 1:1, heated 30 minutes at 90° C.): exceptionally stable | loss of creatine during the heating period (pH's 6 and 7, 90° C. 30 minutes, creatinine 1:1 w/w): no loss of creatine | time to reach equilibrium ([6]; solution of low pH, composed initially of just creatine, 22° C. (FIG. 2)): up to 8 weeks | time to reach stability ([6]; starting with creatine and no creatinine, 22° C.): ≥ 4 weeks
